# Where two headings read alike, the source gives them in different places.
# Columns and labels:
# [1] = tested on: SK209-52 RNA (RNA, riboswitch, extra 5' G residues added for transcription (asterisks in Figure 1b)) GGUACCUGUCACAACGGCUUCCUGGCGUGACGAGGUGACCUCAGUGGAGCAA; test: in-line probing
# [2] = tested on: SAM-Chlorobi RNA (longest construct) (RNA, mRNA element) GGAUUUUCCGGCAUCCCCAUUACCUAUGGACACGGUGCCAAAAGCUCUCUUGCGGGAGUUGUCCCCGGAGCUUGCCGAAAGGUUUCCCGUGUCCCGUUUGUCCCUCCGCGACAUUCACCUUCACGAGAAAACCGCAUCGGCAAACCGCCGGACACCUGCCGUUCUUGUCGUUCGAUUAACAAAAAACCGAAAGGGAAACUA; test: in-line probing; conditions: 1 mM tested; preliminary analysis
# [3] = tested on: SAM-Chlorobi RNA (second construct, shorter 3' end) (RNA, mRNA element) GGAUUUUCCGGCAUCCCCAUUACCUAUGGACACGGUGCCAAAAGCUCUCUUGCGGGAGUUGUCCCCGGAGCUUGCCGAAAGGUUUCCCGUGUCCCGUUUGUCCC; test: in-line probing; conditions: 1 mM tested; preliminary analysis
# [4] = tested on: SAM-Chlorobi RNA (third construct, shorter 3' end) (RNA, mRNA element) GGAUUUUCCGGCAUCCCCAUUACCUAUGGACACGGUGCCAAAAGCUCUCUUGCGGGAGUUGUCCCCGGAGCUUGCCGAAAGGUUUCC; test: in-line probing; conditions: 1 mM tested; preliminary analysis
# [5] = tested on: SAM-Chlorobi RNA (fourth construct, shortest 3' end) (RNA, mRNA element) GGAUUUUCCGGCAUCCCCAUUACCUAUGGACACGGUGCCAAAAGCUCUCUUGCGGGAGUU; test: in-line probing; conditions: 1 mM tested; preliminary analysis
# [6] = tested on: pfl RNA (RNA, riboswitch) GGUAAAAUAAGAAAAUCAUGCAACUGGCGGAAAUGGAGUUCACCAUAGGGAGCAUGAUUAAUAUAAGAAUCGACCGCCUGGGUAAAUUAAUA; test: RNase T1 and V1 protection assay; conditions: PRPP unstable; 1 mM in in-line probing list
KD [1],binding [2],binding [3],binding [4],binding [5],"KD ([1]; SAM samples contain some SAH from spontaneous demethylation, apparent)",binding [6],Structure (SMILES)
~ 4.3 μM,no,no,no,no,,,Nc1ncnc2c1ncn2[C@@H]1O[C@H](CSCC[C@H](N)C(=O)O)[C@@H](O)[C@H]1O
,no,no,no,no,~ 8.6 μM,,C[S+](CC[C@H](N)C(=O)O)C[C@H]1O[C@@H](n2cnc3c(N)ncnc32)[C@H](O)[C@@H]1O (some centres unmarked)
,,,,,,no,O=P(O)(O)OC[C@H]1O[C@H](OP(=O)(O)OP(=O)(O)O)[C@H](O)[C@@H]1O

# From PMC2864571 (2010)
